In ChEMBL document CHEMBL1201862, “PubChem BioAssay data set” (2004):
Where a name gives a salt, the structure may show the parent alone.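 1) Cells in 96-well plates. 2) Compound, 48 h, 5 concentrations. 3) Linear interpolation between surrounding doses. 4) Unreached endpoint = highest concentration. The concentration for 50% growth inhibition is given as GI50.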 Activity calls are given as the source filed them. No stated cut-off is given here; in the data, active = GI50 up to about 1.1 µM and inactive = higher. Square brackets hold non-standard residues; d marks the D form. Residues, ends and D or L forms follow the SMILES beside them. Peptide text beside a SMILES is read from it. *: point of attachment. Boc = CC(C)(C)OC(=O)*

Tests used:
Assay in all cases: inhibition of tumour cell growth, NCI panel, 48 h
HT-29 = system: HT-29
SF-295 = system: SF-295
SF-268 = system: SF-268
Hs-578T = system: Hs-578T
SF-539 = system: SF-539
UACC-257 = system: UACC-257
KM12 = system: KM12
UACC-62 = system: UACC-62
786-0 = system: 786-0
SNB-75 = system: SNB-75
COLO 205 = system: COLO 205
TK-10 = system: TK-10
HCT-15 = system: HCT-15
M14 = system: M14
U-251 = system: U-251
IGROV-1 = system: IGROV-1
OVCAR-3 = system: OVCAR-3
MDA-N = system: MDA-N

Row | Structure (SMILES) | GI50 (HT-29) | GI50 (SF-295) | GI50 (SF-268) | GI50 (Hs-578T) | GI50 (SF-539) | GI50 (UACC-257) | GI50 (KM12) | GI50 (UACC-62) | GI50 (786-0) | GI50 (SNB-75) | GI50 (COLO 205) | GI50 (TK-10) | GI50 (HCT-15) | GI50 (M14) | GI50 (U-251) | GI50 (IGROV-1) | GI50 (OVCAR-3) | GI50 (MDA-N)
1 | Cc1nc2ccccc2c(=O)n1-c1n[nH]c2ccccc12 | > 100 µM (inactive) | > 100 µM (inactive) | > 100 µM (inactive) | > 100 µM (inactive) | > 100 µM (inactive) | > 100 µM (inactive) | > 100 µM (inactive) | > 100 µM (inactive) | > 100 µM (inactive) | > 100 µM (inactive) | > 100 µM (inactive) | > 100 µM (inactive) | > 100 µM | > 100 µM (inactive) | > 100 µM (inactive) | > 100 µM (inactive) | > 100 µM (inactive) | –
2 | C=CCC(C)C12CCNC(Cc3ccc(O)cc31)C2C (stereo unspecified) | 79.1 µM (inactive) | > 100 µM (inactive) | > 100 µM (inactive) | 82.8 µM (inactive) | > 100 µM (inactive) | 66.2 µM (inactive) | > 100 µM (inactive) | > 100 µM (inactive) | > 100 µM (inactive) | > 100 µM (inactive) | > 100 µM (inactive) | > 100 µM (inactive) | > 100 µM | 64.4 µM (inactive) | > 100 µM (inactive) | > 100 µM (inactive) | – | –
3 | CC1(C)C2CCC(N)(C2)C1N (stereo unspecified) | – | > 100 µM (inactive) | – | – | – | > 100 µM (inactive) | > 100 µM (inactive) | > 100 µM (inactive) | > 100 µM (inactive) | > 100 µM (inactive) | > 100 µM (inactive) | > 100 µM (inactive) | > 100 µM | > 100 µM (inactive) | > 100 µM (inactive) | > 100 µM (inactive) | > 100 µM (inactive) | > 100 µM (inactive)
4 | c1ccc2c(c1)ccc1nc3ccccn3c12 | > 100 µM (inactive) | > 100 µM (inactive) | > 100 µM (inactive) | 15.3 µM (inactive) | > 100 µM (inactive) | > 100 µM (inactive) | > 100 µM (inactive) | > 100 µM (inactive) | > 100 µM (inactive) | > 100 µM (inactive) | > 100 µM (inactive) | > 100 µM (inactive) | > 100 µM | > 100 µM (inactive) | > 100 µM (inactive) | > 100 µM (inactive) | > 100 µM (inactive) | –
5 | COC(=O)CN(CC(=O)NCCNC(=O)OC(C)(C)C)C1CCCCC1N(CC(=O)OC)CC(=O)OC (stereo unspecified) | > 100 µM (inactive) | > 100 µM (inactive) | > 100 µM (inactive) | > 100 µM (inactive) | > 100 µM (inactive) | > 100 µM (inactive) | > 100 µM (inactive) | > 100 µM (inactive) | > 100 µM (inactive) | – | > 100 µM (inactive) | > 100 µM (inactive) | > 100 µM | – | > 100 µM (inactive) | > 100 µM (inactive) | > 100 µM (inactive) | > 100 µM (inactive)
6 | COc1cc2c(cc1NC(=O)c1ccccc1)c1c(n2S(=O)(=O)c2ccccc2)CCN(S(=O)(=O)c2ccccc2)C1 | > 100 µM (inactive) | – | > 100 µM (inactive) | > 100 µM (inactive) | – | > 100 µM (inactive) | > 100 µM (inactive) | > 100 µM (inactive) | > 100 µM (inactive) | > 100 µM (inactive) | > 100 µM (inactive) | – | > 100 µM | > 100 µM (inactive) | > 100 µM (inactive) | > 100 µM (inactive) | > 100 µM (inactive) | –
7 | CCOc1ccc(N/C(=C(/C(Cl)=C(/Cl)N2CCCCC2)[N+](=O)[O-])n2nnc3ccccc32)cc1 | – | 22.4 µM (inactive) | 17.4 µM (inactive) | – | 16.4 µM (inactive) | 16.9 µM (inactive) | 14.2 µM (inactive) | 14.4 µM (inactive) | 18.7 µM (inactive) | 19.9 µM (inactive) | 20.6 µM (inactive) | 32.8 µM (inactive) | 11.1 µM | 14.9 µM (inactive) | 15.6 µM (inactive) | – | 17.4 µM (inactive) | 16.3 µM (inactive)
8 | Cc1cc(NS(=O)(=O)c2ccc(NC(=O)c3cccc4c(NNc5ccc(S(N)(=O)=O)cc5)c5ccccc5nc34)cc2)no1 | 30.9 µM (inactive) | 44.4 µM (inactive) | 34.9 µM (inactive) | – | > 100 µM (inactive) | > 100 µM (inactive) | 38.1 µM (inactive) | 43.4 µM (inactive) | 54.6 µM (inactive) | 31.7 µM (inactive) | 45.1 µM (inactive) | 83.2 µM (inactive) | 95.1 µM | 67.1 µM (inactive) | 24 µM (inactive) | 47.3 µM (inactive) | 26.7 µM (inactive) | 52.1 µM (inactive)
9 | COc1ccccc1N1C(=O)/C(=C\c2cc(OC)c(OC)c(OC)c2)S(=O)(=O)C1c1ccccc1 (stereo unspecified) | – | 23.8 µM (inactive) | 44.4 µM (inactive) | 32.7 µM (inactive) | 25.5 µM (inactive) | 70.1 µM (inactive) | 28.6 µM (inactive) | 29.9 µM (inactive) | 54.7 µM (inactive) | – | 26.9 µM (inactive) | > 100 µM (inactive) | 29.5 µM | 31 µM (inactive) | 18.6 µM (inactive) | – | 18.2 µM (inactive) | 18.4 µM (inactive)
10 | COC(=O)C(Cc1c[nH]c2ccccc12)NC(=O)C(Cc1c[nH]c2ccccc12)NC(=O)C(Cc1c[nH]c2ccccc12)NC(=O)C(Cc1c[nH]c2ccccc12)NC(=O)OC(C)(C)C (stereo unspecified) (Boc-WWWW-OMe; configuration not given here) | 22.9 µM (inactive) | – | 28.2 µM (inactive) | – | – | 79.4 µM (inactive) | – | 15.6 µM (inactive) | 5.14 µM (inactive) | 25.5 µM (inactive) | – | 34.7 µM (inactive) | > 100 µM | 30.1 µM (inactive) | 14.4 µM (inactive) | 35.3 µM (inactive) | 15.1 µM (inactive) | 18.5 µM (inactive)
11 | N=C(N)NCCC[C@H]1NC(=O)[C@@H](CCC(=O)O)NC(=O)[C@@H](CC(=O)O)NC(=O)[C@@H](CCC(=O)O)NC(=O)[C@H](Cc2c[nH]c3ccccc23)NC1=O (cyclo(W[dE][dD][dE][dR])) | > 7.5 µM (inactive) | > 7.5 µM (inactive) | > 7.5 µM (inactive) | > 7.5 µM (inactive) | > 7.5 µM (inactive) | > 7.5 µM (inactive) | > 7.5 µM (inactive) | > 7.5 µM (inactive) | > 7.5 µM (inactive) | – | > 7.5 µM (inactive) | > 7.5 µM (inactive) | > 7.5 µM | > 7.5 µM (inactive) | > 7.5 µM (inactive) | > 7.5 µM (inactive) | > 7.5 µM (inactive) | –
12 | NCCCCN [PUTRESCINE HYDROCHLORIDE] | > 100 µM (inactive) | > 100 µM (inactive) | > 100 µM (inactive) | – | > 100 µM (inactive) | > 100 µM (inactive) | 16.3 µM (inactive) | > 100 µM (inactive) | > 100 µM (inactive) | > 100 µM (inactive) | > 100 µM (inactive) | > 100 µM (inactive) | > 100 µM | > 100 µM (inactive) | > 100 µM (inactive) | > 100 µM (inactive) | > 100 µM (inactive) | –
